Measurements published in patent publication US20090176811A1, “Substituted 5,6,7,8-Tetrahydro-pyrido[4,3-d]pyrimidine-2-yl Compounds and 5,6,7,8-Tetrahydro-quinazoline-2-yl Compounds” (GRUENENTHAL GmbH, priority 2004, published 2009).

Test system: batrachotoxin (BTX) binding site of the sodium channel
Assay: Affinity for the batrachotoxin (BTX) binding site of the sodium channel ([3H]-Batrachotoxinin A20 benzoate, rat cerebrocortex synaptosomes)
Details: [3H]-Batrachotoxinin A20 benzoate 10 nM, test concentration not given

SMILES | BTX inhibition
O=C(Nc1ncc2c(n1)CCN(C(=O)Cc1ccc(Cl)cc1)C2)c1ccc(Cl)c(Cl)c1 [Example 126, 3,4-dichloro-N-{6-[2-(4-chloro-phenyl)-acetyl]-5,6,7,8-tetrahydro-pyrido[4,3-d]pyrimidin-2-yl}-benzamide] | 70
CCc1ccc(C(=O)Nc2ncc3c(n2)CCN(C(=O)c2ccc(Cl)c(Cl)c2)C3)cc1 [Example 101, N-[6-(3,4-dichloro-benzoyl)-5,6,7,8-tetrahydro-pyrido[4,3-d]pyrimidin-2-yl]-4-ethyl-benzamide] | 68
O=C(Nc1ncc2c(n1)CCN(C(=O)c1sc3ccccc3c1Cl)C2)c1cccs1 [Example 110, thiophene-2-carboxylic acid [6-(3-chloro-benzo[b]thiophene-2-carbonyl)-5,6,7,8-tetrahydro-pyrido[4,3-d]pyrimidin-2-yl]-amide] | 40
O=C(Nc1ncc2c(n1)CCN(C(=O)c1ccc(OC(F)(F)F)cc1)C2)c1cc(Cl)cc(Cl)c1 [Example 192, 3,5-dichloro-N-[6-(4-trifluoromethoxy-benzoyl)-5,6,7,8-tetrahydro-pyrido[4,3-d]pyrimidin-2-yl]-benzamide] | 87
COc1ccccc1C(=O)Nc1ncc2c(n1)CCN(C(=O)c1cc(-c3ccc(Cl)cc3)oc1C)C2 [Example 78, N-{6-[5-(4-chloro-phenyl)-2-methyl-furan-3-carbonyl]-5,6,7,8-tetrahydro-pyrido[4,3-d]pyrimidin-2-yl}-2-methoxy-benzamide] | 31
O=C(Nc1ncc2c(n1)CCN(C(=O)c1ccc(-c3cccs3)cc1)C2)c1cc(Cl)cc(Cl)c1 [Example 144, 3,5-dichloro-N-[6-(4-thiophen-2-yl-benzoyl)-5,6,7,8-tetrahydro-pyrido[4,3-d]pyrimidin-2-yl]-benzamide] | 81
O=C(Nc1ncc2c(n1)CCN(C(=O)c1ccc(Cl)c(Cl)c1)C2)c1ccccc1F [Example 113, N-[6-(3,4-dichloro-benzoyl)-5,6,7,8-tetrahydro-pyrido[4,3-d]pyrimidin-2-yl]-2-fluoro-benzamide] | 38
O=C(Nc1ncc2c(n1)CCC(NS(=O)(=O)c1ccc3c(c1)CN(C(=O)C(F)(F)F)CC3)C2)c1cccs1 (centres unmarked) [Example 147, thiophene-2-carboxylic acid {6-[2-(2,2,2-trifluoro-acetyl)-1,2,3,4-tetrahydro-isoquinoline-7-sulfonylamino]-5,6,7,8-tetrahydro-quinazolin-2-yl}-amide] | 48
CC(C)(C)c1ccc(C(=O)Nc2ncc3c(n2)CCN(S(=O)(=O)c2ccc4c(c2)OCCO4)C3)cc1 [Example 186, 4-tert-butyl-N-[6-(2,3-dihydro-benzo[1,4]dioxin-6-sulfonyl)-5,6,7,8-tetrahydro-pyrido[4,3-d]pyrimidin-2-yl]-benzamide] | 77
COc1ccccc1C(=O)Nc1ncc2c(n1)CCN(C(=O)COCc1ccccc1)C2 [Example 195, N-[6-(2-benzyloxy-acetyl)-5,6,7,8-tetrahydro-pyrido[4,3-d]pyrimidin-2-yl]-2-methoxy-benzamide] | 35
O=C(Nc1ncc2c(n1)CCN(C(=O)CCCCc1ccccc1)C2)c1ccccc1 [Example 190, N-[6-(5-phenyl-pentanoyl)-5,6,7,8-tetrahydro-pyrido[4,3-d]pyrimidin-2-yl]-benzamide] | 56
CCc1ccc(C(=O)Nc2ncc3c(n2)CCN(S(=O)(=O)c2ccccc2Cl)C3)cc1 [Example 114, N-[6-(2-chloro-benzenesulfonyl)-5,6,7,8-tetrahydro-pyrido[4,3-d]pyrimidin-2-yl]-4-ethyl-benzamide] | 82
CCc1ccc(C(=O)Nc2ncc3c(n2)CCN(S(=O)(=O)c2ccsc2)C3)cc1 [Example 121, 4-ethyl-N-[6-(thiophene-3-sulfonyl)-5,6,7,8-tetrahydro-pyrido[4,3-d]pyrimidin-2-yl]-benzamide] | 57
COc1cccc(C(=O)Nc2ncc3c(n2)CCN(S(=O)(=O)c2cc(Br)ccc2OC)C3)c1 [Example 129, N-[6-(5-bromo-2-methoxy-benzenesulfonyl)-5,6,7,8-tetrahydro-pyrido[4,3-d]pyrimidin-2-yl]-3-methoxy-benzamide] | 76
O=C(Nc1ncc2c(n1)CCN(C(=O)c1ccc3ccccc3c1)C2)c1ccc(Cl)cc1 [Example 69] | 64
CCCC(=O)Nc1ncc2c(n1)CCC(NC(=O)C=Cc1cccc(C(F)(F)F)c1)C2 (centres unmarked) [Example 168, N-(2-butyrylamino-5,6,7,8-tetrahydro-quinazolin-6-yl)-3-(3-trifluoromethyl-phenyl)-acrylamide] | 39
O=C(Nc1ncc2c(n1)CCN(C(=O)Cc1ccc(C(F)(F)F)cc1)C2)c1ccccc1 [Example 155, N-{6-[2-(4-trifluoromethyl-phenyl)-acetyl]-5,6,7,8-tetrahydro-pyrido[4,3-d]pyrimidin-2-yl}-benzamide] | 62
CCCCCC(=O)NC1CCc2nc(NC(=O)c3ccc(F)cc3)ncc2C1 (centres unmarked) [Example 128, 4-fluoro-N-(6-hexanoylamino-5,6,7,8-tetrahydro-quinazolin-2-yl)-benzamide] | 33
O=C(Nc1ncc2c(n1)CCN(C(=O)Cc1c(Cl)cccc1Cl)C2)c1cccc(Cl)c1 [Example 187, 3-chloro-N-{6-[2-(2,6-dichloro-phenyl)-acetyl]-5,6,7,8-tetrahydro-pyrido[4,3-d]pyrimidin-2-yl}-benzamide] | 43
CCCC(=O)Nc1ncc2c(n1)CCC(NS(=O)(=O)c1ccc(C(C)(C)CC)cc1)C2 (centres unmarked) [Example 167, N-{6-[4-(1,1-dimethyl-propyl)-benzenesulfonylamino]-5,6,7,8-tetrahydro-quinazolin-2-yl}-butyramide] | 51
Cc1ccc(C)c(CC(=O)NC2CCc3nc(NC(=O)c4ccc(F)cc4)ncc3C2)c1 (centres unmarked) [Example 163, N-{6-[2-(2,5-dimethyl-phenyl)-acetylamino]-5,6,7,8-tetrahydro-quinazolin-2-yl}-4-fluoro-benzamide] | 28
Cc1cc(C(=O)NC2CCc3nc(NC(=O)c4cccs4)ncc3C2)ccc1Br (centres unmarked) [Example 115, thiophene-2-carboxylic acid [6-(4-bromo-3-methyl-benzoylamino)-5,6,7,8-tetrahydro-quinazolin-2-yl]-amide] | 82
Cc1ccc(C(=O)Nc2ncc3c(n2)CCN(S(=O)(=O)c2cc(F)ccc2C)C3)cc1 [Example 107, N-[6-(5-fluoro-2-methyl-benzenesulfonyl)-5,6,7,8-tetrahydro-pyrido[4,3-d]pyrimidin-2-yl]-4-methyl-benzamide] | 73
Cc1cccc(C(=O)Nc2ncc3c(n2)CCN(S(=O)(=O)c2sc(C)nc2C)C3)c1 [Example 68, N-[6-(2,4-dimethyl-thiazole-5-sulfonyl)-5,6,7,8-tetrahydro-pyrido[4,3-d]pyrimidin-2-yl]-3-methyl-benzamide] | 35
O=C(Nc1ncc2c(n1)CCN(S(=O)(=O)c1ccc(OC(F)(F)F)cc1)C2)c1ccc(Cl)c(Cl)c1 [Example 134, 3,4-dichloro-N-[6-(4-trifluoromethoxy-benzenesulfonyl)-5,6,7,8-tetrahydro-pyrido[4,3-d]pyrimidin-2-yl]-benzamide] | 64
COc1ccccc1C(=O)Nc1ncc2c(n1)CCN(S(=O)(=O)c1c(C)cc(OC)c(C)c1C)C2 [Example 158, 2-methoxy-N-[6-(4-methoxy-2,3,6-trimethyl-benzenesulfonyl)-5,6,7,8-tetrahydro-pyrido[4,3-d]pyrimidin-2-yl]-benzamide] | 74
